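How tested: cells in 96-well plates exposed to compound for 48 hours at five concentrations. Definition used: TGI = concentration required for complete inhibition of growth.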
Experiments:
Assay in all cases: growth of human tumour cells (NCI), 48 h
[1] = system: RPMI-8226 leukemia
[2] = system: OVCAR-8 ovarian
[3] = system: SF-268 CNS
[4] = system: SF-539 CNS
[5] = system: UACC-62 melanoma
[6] = system: HCT-116 colon
[7] = system: SK-OV-3 ovarian
[8] = system: LOX IMVI melanoma
[9] = system: OVCAR-5 ovarian
[10] = system: IGROV1 ovarian
[11] = system: UO-31 renal
[12] = system: U251 CNS
[13] = system: HCC-2998 colon
[14] = system: HL-60(TB) leukemia
[15] = system: A498 renal
[16] = system: NCI/ADR-RES ovarian
[17] = system: RXF 393 renal
[18] = system: MCF7 breast
[19] = system: ACHN renal
[20] = system: HS 578T breast
[21] = system: MOLT-4 leukemia
[22] = system: COLO 205 colon
[23] = system: BT-549 breast
[24] = system: EKVX NSCLC
[25] = system: 786-0 renal
[26] = system: SW-620 colon
[27] = system: SN12C renal
[28] = system: M14 melanoma
[29] = system: MDA-MB-231 breast
[30] = system: MALME-3M melanoma
[31] = system: HOP-62 NSCLC
[32] = system: SNB-75 CNS
[33] = system: DU-145 prostate
[34] = system: NCI-H460 lung
[35] = system: PC-3 prostate
[36] = system: CCRF-CEM leukemia
[37] = system: MDA-MB-435
[38] = system: TK-10 renal
[39] = system: SK-MEL-28 melanoma
[40] = system: NCI-H226 lung
[41] = system: HCT-15 colon
[42] = system: CAKI-1 renal
[43] = system: KM12 colon
[44] = system: SF-295 CNS
[45] = system: MDA-N
[46] = system: HOP-92 NSCLC
[47] = system: A549 NSCLC
[48] = system: NCI-H23 lung
[49] = system: SNB-19 CNS
[50] = system: T-47D breast
[51] = system: OVCAR-3 ovarian
[52] = system: K-562 leukemia
[53] = system: UACC-257 melanoma
[54] = system: OVCAR-4 ovarian
[55] = system: HT29 colon
[56] = system: SR leukemia
[57] = system: SK-MEL-5 melanoma

O=C1/C(=C/c2cccc3ccccc23)CCc2ccc([N+](=O)[O-])cc21
TGI [1]: > 100 µM | TGI [2]: > 100 µM | TGI [3]: > 100 µM | TGI [4]: 73.5 µM | TGI [5]: 65.8 µM | TGI [6]: 71 µM | TGI [7]: 77.8 µM | TGI [8]: > 100 µM | TGI [9]: > 100 µM | TGI [10]: > 100 µM | TGI [11]: > 100 µM | TGI [12]: 39.4 µM | TGI [13]: > 100 µM | TGI [14]: > 100 µM | TGI [15]: > 100 µM | TGI [16]: > 100 µM | TGI [17]: 88.8 µM | TGI [18]: 86.5 µM | TGI [19]: > 100 µM | TGI [20]: 47.7 µM | TGI [21]: > 100 µM | TGI [22]: > 100 µM | TGI [23]: 45.5 µM | TGI [24]: > 100 µM | TGI [25]: 65.5 µM | TGI [26]: > 100 µM | TGI [27]: > 100 µM | TGI [28]: > 100 µM | TGI [29]: > 100 µM | TGI [30]: > 100 µM | TGI [31]: > 100 µM | TGI [32]: 42.1 µM | TGI [33]: > 100 µM | TGI [34]: > 100 µM | TGI [35]: > 100 µM | TGI [36]: > 100 µM | TGI [37]: 22.6 µM | TGI [38]: > 100 µM | TGI [39]: > 100 µM | TGI [40]: > 100 µM | TGI [41]: > 100 µM | TGI [42]: > 100 µM | TGI [43]: > 100 µM | TGI [44]: 31.1 µM | TGI [45]: 23.4 µM | TGI [46]: 74.4 µM | TGI [47]: > 100 µM | TGI [48]: > 100 µM | TGI [49]: 43.7 µM | TGI [50]: > 100 µM | TGI [51]: 12.7 µM | TGI [52]: > 100 µM

COc1cc(/C=C/c2ccc(O)c(OC)c2)cc(OC)c1
TGI [1]: > 100 µM | TGI [53]: 80.6 µM | TGI [2]: > 100 µM | TGI [3]: > 100 µM | TGI [6]: > 100 µM | TGI [7]: 76.9 µM | TGI [9]: > 100 µM | TGI [10]: > 100 µM | TGI [11]: 66.2 µM | TGI [12]: > 100 µM | TGI [13]: > 100 µM | TGI [14]: 78.1 µM | TGI [15]: 84.4 µM | TGI [16]: > 100 µM | TGI [17]: > 100 µM | TGI [18]: > 100 µM | TGI [19]: 80 µM | TGI [20]: 59.1 µM | TGI [21]: > 100 µM | TGI [22]: > 100 µM | TGI [24]: > 100 µM | TGI [25]: > 100 µM | TGI [26]: > 100 µM | TGI [54]: > 100 µM | TGI [55]: 85.8 µM | TGI [56]: > 100 µM | TGI [28]: 70.8 µM | TGI [30]: > 100 µM | TGI [31]: > 100 µM | TGI [32]: 97 µM | TGI [33]: 61.5 µM | TGI [34]: 52.5 µM | TGI [35]: 46.8 µM | TGI [36]: > 100 µM | TGI [57]: 77.7 µM | TGI [38]: 68.3 µM | TGI [39]: > 100 µM | TGI [41]: 45.8 µM | TGI [42]: > 100 µM | TGI [43]: 96.5 µM | TGI [44]: 54.7 µM | TGI [45]: 46 µM | TGI [46]: 49.7 µM | TGI [47]: > 100 µM | TGI [48]: > 100 µM | TGI [49]: > 100 µM | TGI [50]: > 100 µM | TGI [52]: > 100 µM

Source: PubChem BioAssay (NCI)
